Reference: ChEMBL document CHEMBL4000148, “Design of novel dispirooxindolopyrrolidine and dispirooxindolopyrrolothiazole derivatives as potential antitubercular agents” (Bioorg Med Chem Lett, 2015)
Values after ≈ are worked out from the molar mass of the structure shown.

Assays:
[1] = tested on: Mycobacterium tuberculosis; assay: Antitubercular activity against Mycobacterium tuberculosis H37Rv ATCC 27294 after 28 days by agar dilution method; format: functional; settings: H37Rv ATCC 27294, 672 h
[2] = Cytotoxicity against mouse RAW264.7 cells assessed as inhibition of cell viability at 50 uM after 72 hrs by MTT assay relative to control; format: cell-based; settings: read-out: INH
[3] = tested on: Mycobacterium tuberculosis; assay: Potency index, ratio of pyrazinamide MIC to compound MIC for Mycobacterium tuberculosis H37Rv ATCC 27294; format: functional
[4] = tested on: Mycobacterium tuberculosis; assay: Potency index, ratio of ciprofloxacin MIC to compound MIC for Mycobacterium tuberculosis H37Rv ATCC 27294; format: functional

| SMILES | MIC [1] [µg/mL] | cytotoxicity at 72 h, 50 µM [2] [%] | Ratio [3] | Ratio [4] |
| --- | --- | --- | --- | --- |
| O=C1Oc2ccccc2[C@@]12[C@H](c1ccccc1)[C@H]1CSCN1[C@]21C(=O)Nc2ccccc21 | 25 (≈ 56.8 µM) |  |  |  |
| O=C1Oc2ccccc2[C@@]12[C@H](c1ccccc1)[C@H]1CSCN1[C@]21C(=O)Nc2ccc(Br)cc21 | 25 (≈ 48.1 µM) |  |  |  |
| CSc1ccc([C@@H]2[C@H]3CSCN3[C@]3(C(=O)Nc4ccc(Br)cc43)[C@@]23C(=O)Oc2ccccc23)cc1 | 6.25 (≈ 11.1 µM) | 28.1 |  |  |
| CO[C@H]1/C=C/O[C@@]2(C)Oc3c(C)c(O)c4c(O)c(c(/C=N/N5CCN(C)CC5)c(O)c4c3C2=O)NC(=O)/C(C)=C\C=C\[C@H](C)[C@H](O)[C@@H](C)[C@@H](O)[C@@H](C)[C@H](OC(C)=O)[C@@H]1C [RIFAMPIN] | 0.1 (≈ 0.122 µM) |  |  |  |
| COc1ccc([C@@H]2[C@H]3CSCN3[C@]3(C(=O)Nc4ccc(Br)cc43)[C@@]23C(=O)Oc2ccccc23)cc1 | 50 (≈ 91 µM) |  |  |  |
| CSc1ccc([C@@H]2[C@H]3CSCN3[C@]3(C(=O)Nc4ccc([N+](=O)[O-])cc43)[C@@]23C(=O)Oc2ccccc23)cc1 | 12.5 (≈ 23.5 µM) |  |  |  |
| O=C1Oc2ccccc2[C@@]12[C@H](c1ccc(Br)cc1)[C@H]1CSCN1[C@]21C(=O)Nc2ccccc21 | 3.12 (≈ 6.02 µM) | 28.5 |  |  |
| O=C1Oc2ccccc2[C@@]12[C@H](c1ccc(Br)cc1)[C@H]1CSCN1[C@]21C(=O)Nc2ccc(Br)cc21 | 3.12 (≈ 5.22 µM) | 32.4 |  |  |
| CN1C[C@@H](c2ccc([N+](=O)[O-])cc2)[C@]2(C(=O)Oc3ccccc32)[C@@]12C(=O)Nc1ccccc12 | 3.12 (≈ 7.08 µM) | 29.5 |  |  |
| CSc1ccc([C@@H]2[C@H]3CSCN3[C@]3(C(=O)Nc4ccccc43)[C@@]23C(=O)Oc2ccccc23)cc1 | 12.5 (≈ 25.7 µM) |  |  |  |
| CN1C[C@@H](c2ccccc2)[C@]2(C(=O)Oc3ccccc32)[C@@]12C(=O)Nc1ccccc12 | 12.5 (≈ 31.5 µM) |  |  |  |
| O=C1Oc2ccccc2[C@@]12[C@H](c1ccc(Br)cc1)[C@H]1CSCN1[C@]21C(=O)Nc2ccc([N+](=O)[O-])cc21 | 12.5 (≈ 22.1 µM) |  |  |  |
| CN1C[C@@H](c2ccc(Cl)cc2)[C@]2(C(=O)Oc3ccccc32)[C@@]12C(=O)Nc1ccccc12 | 6.25 (≈ 14.5 µM) | 30.1 |  |  |
| O=C1Oc2ccccc2[C@@]12[C@H](c1ccc([N+](=O)[O-])cc1)[C@H]1CSCN1[C@]21C(=O)Nc2ccccc21 | 1.56 (≈ 3.21 µM) | 20.7 | 4 | 2 |
| Cc1ccc([C@@H]2[C@H]3CSCN3[C@]3(C(=O)Nc4ccc(Br)cc43)[C@@]23C(=O)Oc2ccccc23)cc1 | 12.5 (≈ 23.4 µM) |  |  |  |
| COc1ccc([C@@H]2[C@H]3CSCN3[C@]3(C(=O)Nc4ccccc43)[C@@]23C(=O)Oc2ccccc23)cc1 | 1.56 (≈ 3.32 µM) | 27.5 | 4 | 2 |
| NC(=O)c1cnccn1 [PYRAZINAMIDE] | 6.25 (≈ 50.8 µM) |  |  |  |
| NNC(=O)c1ccncc1 [ISONIAZID] | 0.05 (≈ 0.365 µM) |  |  |  |
| CSc1ccc([C@@H]2CN(C)[C@]3(C(=O)Nc4ccccc43)[C@@]23C(=O)Oc2ccccc23)cc1 | 3.12 (≈ 7.06 µM) | 28.7 |  |  |
| O=C1Oc2ccccc2[C@@]12[C@H](c1ccc(Cl)cc1)[C@H]1CSCN1[C@]21C(=O)Nc2ccc(Br)cc21 | 3.12 (≈ 5.64 µM) | 34.6 |  |  |
| O=C1Oc2ccccc2[C@@]12[C@H](c1ccc([N+](=O)[O-])cc1)[C@H]1CSCN1[C@]21C(=O)Nc2ccc([N+](=O)[O-])cc21 | 50 (≈ 94.2 µM) |  |  |  |
| COc1ccc([C@@H]2CN(C)[C@]3(C(=O)Nc4ccccc43)[C@@]23C(=O)Oc2ccccc23)cc1 | 12.5 (≈ 29.3 µM) |  |  |  |
| Cc1ccc([C@@H]2[C@H]3CSCN3[C@]3(C(=O)Nc4ccc([N+](=O)[O-])cc43)[C@@]23C(=O)Oc2ccccc23)cc1 | > 25 |  |  |  |
| O=C(O)c1cn(C2CC2)c2cc(N3CCNCC3)c(F)cc2c1=O [CIPROFLOXACIN] | 3.13 (≈ 9.45 µM) |  |  |  |
| CC[C@@H](CO)NCCN[C@@H](CC)CO [ETHAMBUTOL] | 1.56 (≈ 7.64 µM) |  |  |  |
| O=C1Oc2ccccc2[C@@]12[C@H](c1ccccc1)[C@H]1CSCN1[C@]21C(=O)Nc2ccc([N+](=O)[O-])cc21 | 3.12 (≈ 6.44 µM) | 35.2 |  |  |
| Cc1ccc([C@@H]2[C@H]3CSCN3[C@]3(C(=O)Nc4ccccc43)[C@@]23C(=O)Oc2ccccc23)cc1 | 12.5 (≈ 27.5 µM) |  |  |  |
| O=C1Oc2ccccc2[C@@]12[C@H](c1ccc([N+](=O)[O-])cc1)[C@H]1CSCN1[C@]21C(=O)Nc2ccc(Br)cc21 | 3.12 (≈ 5.54 µM) | 43.1 |  |  |
| COc1ccc([C@@H]2[C@H]3CSCN3[C@]3(C(=O)Nc4ccc([N+](=O)[O-])cc43)[C@@]23C(=O)Oc2ccccc23)cc1 | 25 (≈ 48.5 µM) |  |  |  |
| O=C1Oc2ccccc2[C@@]12[C@H](c1ccc(Cl)cc1)[C@H]1CSCN1[C@]21C(=O)Nc2ccccc21 | 3.12 (≈ 6.58 µM) | 32.3 |  |  |
